Source: ChEMBL document CHEMBL3600322, “Phenoxymethyl 1,3-oxazoles and 1,2,4-oxadiazoles as potent and selective agonists of free fatty acid receptor 1 (GPR40)” (Bioorg Med Chem Lett, 2015)
≈ marks a conversion by molar mass, not a printed value.

Molecular target: CYP2C19 (Homo sapiens, UniProt P33261)
Test: Inhibition of CYP2C19 (unknown origin) at 5 uM by luminescent readout-based method
Assay type: ADME
Details: not given

Sequence of CYP2C19 (P33261 whole entry): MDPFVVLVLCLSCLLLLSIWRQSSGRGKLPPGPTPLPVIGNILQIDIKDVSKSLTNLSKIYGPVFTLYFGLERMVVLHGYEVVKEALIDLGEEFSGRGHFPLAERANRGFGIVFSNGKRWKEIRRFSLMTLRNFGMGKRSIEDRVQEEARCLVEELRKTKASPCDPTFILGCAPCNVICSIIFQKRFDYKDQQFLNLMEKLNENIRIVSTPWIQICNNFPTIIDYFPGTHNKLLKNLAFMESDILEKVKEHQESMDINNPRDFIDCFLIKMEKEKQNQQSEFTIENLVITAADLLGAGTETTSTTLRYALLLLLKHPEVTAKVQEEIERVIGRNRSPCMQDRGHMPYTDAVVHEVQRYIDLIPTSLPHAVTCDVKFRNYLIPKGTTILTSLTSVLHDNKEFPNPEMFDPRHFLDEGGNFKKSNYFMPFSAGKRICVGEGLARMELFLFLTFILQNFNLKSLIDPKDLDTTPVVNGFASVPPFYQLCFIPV

In order of rising inhibition at 5 µM:
1. Cc1ccc(-c2noc(COc3ccc(CCC(=O)O)cc3)n2)cc1  20.6%
2. Cc1oc(-c2ccccc2)nc1COc1ccc(CCC(=O)O)cc1  23.6%
3. O=C(O)CCc1ccc(OCc2nc(-c3ccc(Cl)cc3)no2)cc1  31.6%

Molecular target: T1, CYP2C9 (Homo sapiens, UniProt P11712)
Test: Inhibition of CYP2C9 (unknown origin) at 120 uM by luminescent readout-based method
Assay type: ADME
Details: not given

T1 sequence (P11712 whole entry): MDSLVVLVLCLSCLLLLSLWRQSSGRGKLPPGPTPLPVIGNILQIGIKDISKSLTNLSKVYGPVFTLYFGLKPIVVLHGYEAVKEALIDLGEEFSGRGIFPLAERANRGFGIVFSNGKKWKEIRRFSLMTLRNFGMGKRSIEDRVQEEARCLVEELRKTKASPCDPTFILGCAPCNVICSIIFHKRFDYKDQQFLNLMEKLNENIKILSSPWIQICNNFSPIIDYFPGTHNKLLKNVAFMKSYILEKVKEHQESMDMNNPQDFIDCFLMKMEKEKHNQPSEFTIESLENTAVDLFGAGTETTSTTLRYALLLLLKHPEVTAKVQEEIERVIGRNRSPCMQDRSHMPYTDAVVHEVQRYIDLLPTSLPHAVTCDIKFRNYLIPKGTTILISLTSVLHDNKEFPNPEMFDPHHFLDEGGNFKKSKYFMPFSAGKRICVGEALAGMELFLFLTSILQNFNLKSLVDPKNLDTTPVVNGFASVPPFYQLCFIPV

In the case of `OC(Cn1cncn1)(Cn1cncn1)c1ccc(F)cc1F` [FLUCONAZOLE], the inhibition at 120 µM is reported as 89.1%.

Molecular target: T1, CYP2C9
Test: Inhibition of CYP2C9 (unknown origin) at 5 uM by luminescent readout-based method
Assay type: ADME
Details: not given

In order of falling inhibition at 5 µM:
1. O=C(O)CCc1ccc(OCc2nc(-c3ccc(Cl)cc3)no2)cc1  16.2%
2. Cc1oc(-c2ccccc2)nc1COc1ccc(CCC(=O)O)cc1  10.8%
3. Cc1ccc(-c2noc(COc3ccc(CCC(=O)O)cc3)n2)cc1  4.26%

Molecular target: T2, Free fatty acid receptor 2 (Homo sapiens, UniProt O15552)
T2 sequence (O15552 whole entry): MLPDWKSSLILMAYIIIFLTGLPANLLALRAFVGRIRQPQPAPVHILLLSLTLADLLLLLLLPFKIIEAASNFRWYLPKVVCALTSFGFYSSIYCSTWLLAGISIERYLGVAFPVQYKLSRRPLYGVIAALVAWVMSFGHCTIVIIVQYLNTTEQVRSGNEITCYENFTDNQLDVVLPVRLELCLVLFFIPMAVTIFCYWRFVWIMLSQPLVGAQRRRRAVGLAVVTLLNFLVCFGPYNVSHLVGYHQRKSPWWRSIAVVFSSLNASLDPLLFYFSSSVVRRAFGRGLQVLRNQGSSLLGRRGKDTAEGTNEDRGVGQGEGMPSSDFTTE
Test: Agonist activity at GPR43 (unknown origin) expressed in CHO cells by FLIPR calcium flux assay in presence of 0.1% bovine serum albumin
Assay type: functional, cell-based
Details: not given

`Cc1oc(-c2ccccc2)nc1COc1ccc(CCC(=O)O)cc1` and `Cc1ccc(-c2noc(COc3ccc(CCC(=O)O)cc3)n2)cc1` cannot be ordered by EC50: > 10000 nM for the first, > 10000 nM for the second.

In the case of `O=C(O)CCc1ccc(OCc2nc(-c3ccc(Cl)cc3)no2)cc1`, the EC50 is reported as > 10000 nM.

Molecular target: T3, Free fatty acid receptor 1 (Homo sapiens, UniProt O14842)
Test: Agonist activity at GPR40 (unknown origin) expressed in CHO cells by FLIPR calcium flux assay in presence of 0.1% bovine serum albumin
Assay type: functional, cell-based
Details: not given

T3 sequence (O14842 whole entry): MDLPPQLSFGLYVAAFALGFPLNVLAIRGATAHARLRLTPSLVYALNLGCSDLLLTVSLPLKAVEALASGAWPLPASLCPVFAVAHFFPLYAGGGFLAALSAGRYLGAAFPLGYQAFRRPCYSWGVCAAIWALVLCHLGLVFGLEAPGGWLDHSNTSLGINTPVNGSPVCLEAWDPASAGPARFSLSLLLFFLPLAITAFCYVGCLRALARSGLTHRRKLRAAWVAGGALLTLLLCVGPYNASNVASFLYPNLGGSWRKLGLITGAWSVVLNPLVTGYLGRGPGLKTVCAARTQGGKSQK

Going from `O=C(O)Cc1ccc(OCc2nc(-c3cccc(Cl)c3)no2)cc1` to `O=C(O)CCc1ccc(OCc2nc(-c3ccc(Cl)cc3)no2)cc1`, the EC50 falls from 18800 nM to 540 nM (35-fold).

Going from `CC(Oc1ccc(CCC(=O)O)cc1)c1nc(-c2cccs2)no1` (stereo unspecified) to `CC(Oc1ccc(CCC(=O)O)cc1)c1nc(-c2ccc(Cl)cc2)no1` (stereo unspecified), the EC50 falls from 4000 nM to 500 nM (8-fold).

Compared with `Cc1cc(-c2noc(COc3ccc(CCC(=O)O)cc3)n2)ccc1F`, `Cc1ccc(-c2noc(COc3ccc(CCC(=O)O)cc3)n2)cc1` is 7.1-fold lower in EC50: 2120 nM for the first, 300 nM for the second.

Going from `O=C(O)CCc1ccc(OCc2nc(-c3ccco3)no2)cc1` to `O=C(O)CCc1ccc(OCc2nc(-c3ccccc3)no2)cc1`, the EC50 falls from > 100000 nM to 1130 nM. The second is the more potent here.

Going from `Cc1oc(-c2ccccc2)nc1COc1ccc(CCC(=O)O)cc1` to `O=C(O)CCc1ccc(OCc2coc(-c3ccccc3)n2)cc1`, the EC50 rises from 58 nM to 700 nM (12-fold). The first is the more potent here.

`O=C(O)CCc1ccc(OCc2ncc(-c3cccc(F)c3)o2)cc1` and `O=C(O)CCc1ccc(OCc2ncc(-c3ccccc3)o2)cc1` are within 1.5-fold of each other in EC50: 1070 nM for the first, 1600 nM for the second.

First: O=C(O)CCc1ccc(OCc2nc(-c3cccc(C(F)(F)F)c3)no2)cc1
Second: O=C(O)CCc1ccc(OCc2nc(-c3ccc(C(F)(F)F)cc3)no2)cc1
The EC50 of the first is 1.8-fold higher: 1110 nM for the first, 610 nM for the second.

For `O=C(O)CCc1ccc(OCc2nc(-c3ccccc3Cl)no2)cc1`, the EC50 was 1200 nM.

Test system: not listed separately
Test: Half life in BALB/c mouse liver microsomes at 2 uM by HPLC-MS analysis
Assay type: ADME
Details: not given

In order of rising half-life at 2 µM:
1. Cc1ccc(-c2noc(COc3ccc(CCC(=O)O)cc3)n2)cc1  6.22 h
2. Cc1oc(-c2ccccc2)nc1COc1ccc(CCC(=O)O)cc1  7.23 h
3. O=C(O)CCc1ccc(OCc2nc(-c3ccc(Cl)cc3)no2)cc1  12.1 h

Test system: not listed separately
Test: Kinetic solubility of the compound in phosphate-buffered saline at pH 7.4 by filter microplate technique
Assay type: physicochemical
Details: read-out: Kinetic_solubility

In order of rising solubility kinetic:
1. O=C(O)CCc1ccc(OCc2nc(-c3ccc(Cl)cc3)no2)cc1  214 µM (≈ 76.8 µg/mL)
2. Cc1ccc(-c2noc(COc3ccc(CCC(=O)O)cc3)n2)cc1  334 µM (≈ 113 µg/mL)
3. Cc1oc(-c2ccccc2)nc1COc1ccc(CCC(=O)O)cc1  404 µM (≈ 136 µg/mL)

Molecular target: T4, CYP1A2 (Homo sapiens, UniProt P05177)
T4 sequence (P05177 whole entry): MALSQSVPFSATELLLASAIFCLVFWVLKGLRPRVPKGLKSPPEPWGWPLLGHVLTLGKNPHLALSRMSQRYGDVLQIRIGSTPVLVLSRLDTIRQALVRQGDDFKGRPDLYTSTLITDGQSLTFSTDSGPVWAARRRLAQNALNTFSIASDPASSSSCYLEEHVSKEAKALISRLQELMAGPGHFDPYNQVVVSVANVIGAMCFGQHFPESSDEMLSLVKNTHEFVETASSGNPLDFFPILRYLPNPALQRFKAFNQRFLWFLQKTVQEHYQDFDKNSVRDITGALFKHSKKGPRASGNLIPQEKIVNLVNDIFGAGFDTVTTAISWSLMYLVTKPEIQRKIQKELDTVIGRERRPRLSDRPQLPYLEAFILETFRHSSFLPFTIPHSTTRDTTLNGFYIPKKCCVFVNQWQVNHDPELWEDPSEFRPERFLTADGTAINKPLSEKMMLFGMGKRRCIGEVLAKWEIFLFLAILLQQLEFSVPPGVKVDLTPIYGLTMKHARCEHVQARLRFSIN
Test: Inhibition of CYP1A2 (unknown origin) at 5 uM by luminescent readout-based method
Assay type: ADME
Details: not given

In order of rising inhibition at 5 µM:
1. Cc1oc(-c2ccccc2)nc1COc1ccc(CCC(=O)O)cc1  8.9%
2. Cc1ccc(-c2noc(COc3ccc(CCC(=O)O)cc3)n2)cc1  13.6%
3. O=C(O)CCc1ccc(OCc2nc(-c3ccc(Cl)cc3)no2)cc1  25.9%

Molecular target: CYP2D6 (Homo sapiens, UniProt P10635)
Test: Inhibition of CYP2D6 (unknown origin) at 5 uM by luminescent readout-based method
Assay type: ADME
Details: not given

Sequence of CYP2D6 (P10635 whole entry): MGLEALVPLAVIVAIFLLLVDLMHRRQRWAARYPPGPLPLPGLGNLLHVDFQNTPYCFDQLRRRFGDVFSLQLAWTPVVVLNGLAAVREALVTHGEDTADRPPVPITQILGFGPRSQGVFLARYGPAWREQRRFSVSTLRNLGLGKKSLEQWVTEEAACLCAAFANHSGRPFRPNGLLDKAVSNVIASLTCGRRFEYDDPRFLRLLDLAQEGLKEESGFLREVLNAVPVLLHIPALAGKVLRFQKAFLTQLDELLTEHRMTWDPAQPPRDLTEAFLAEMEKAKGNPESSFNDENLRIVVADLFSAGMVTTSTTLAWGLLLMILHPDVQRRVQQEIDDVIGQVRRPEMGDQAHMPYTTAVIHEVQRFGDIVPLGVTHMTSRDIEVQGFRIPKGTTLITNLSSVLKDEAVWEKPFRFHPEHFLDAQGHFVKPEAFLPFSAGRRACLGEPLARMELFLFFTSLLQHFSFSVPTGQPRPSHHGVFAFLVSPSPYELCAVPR

In order of rising inhibition at 5 µM:
1. Cc1ccc(-c2noc(COc3ccc(CCC(=O)O)cc3)n2)cc1  -8.3%
2. O=C(O)CCc1ccc(OCc2nc(-c3ccc(Cl)cc3)no2)cc1  -5.8%
3. Cc1oc(-c2ccccc2)nc1COc1ccc(CCC(=O)O)cc1  17.7%

Test system: not listed separately
Test: Apparent permeability from apical to basolateral side in human Caco2 cells assessed […] at 10 uM by HPLC-MS analysis
Assay type: ADME, cell-based
Details: Caco-2

In order of rising Papp A→B at 10 µM:
1. O=C(O)CCc1ccc(OCc2nc(-c3ccc(Cl)cc3)no2)cc1  2.1 ×10⁻⁶ cm/s
2. Cc1oc(-c2ccccc2)nc1COc1ccc(CCC(=O)O)cc1  15.2 ×10⁻⁶ cm/s
3. Cc1ccc(-c2noc(COc3ccc(CCC(=O)O)cc3)n2)cc1  27.3 ×10⁻⁶ cm/s

Molecular target: T5, Free fatty acid receptor 3 (Homo sapiens, UniProt O14843)
T5 sequence (O14843 whole entry): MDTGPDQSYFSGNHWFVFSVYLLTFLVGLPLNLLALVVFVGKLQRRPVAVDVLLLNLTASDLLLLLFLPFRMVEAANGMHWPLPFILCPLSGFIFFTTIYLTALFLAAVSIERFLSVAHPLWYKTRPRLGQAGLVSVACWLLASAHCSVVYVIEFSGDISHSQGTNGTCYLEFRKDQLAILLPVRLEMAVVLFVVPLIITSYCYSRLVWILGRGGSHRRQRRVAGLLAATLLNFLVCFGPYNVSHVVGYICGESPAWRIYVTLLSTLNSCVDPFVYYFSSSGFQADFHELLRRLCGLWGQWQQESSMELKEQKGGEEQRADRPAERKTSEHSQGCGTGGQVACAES
Test: Agonist activity at GPR41 (unknown origin) expressed in CHO cells by FLIPR calcium flux assay in presence of 0.1% bovine serum albumin
Assay type: functional, cell-based
Details: not given

`Cc1oc(-c2ccccc2)nc1COc1ccc(CCC(=O)O)cc1` and `Cc1ccc(-c2noc(COc3ccc(CCC(=O)O)cc3)n2)cc1` cannot be ordered by EC50: > 10000 nM for the first, > 10000 nM for the second.

With `O=C(O)CCc1ccc(OCc2nc(-c3ccc(Cl)cc3)no2)cc1` the EC50 was > 10000 nM.

Molecular target: CYP3A4 (Homo sapiens, UniProt P08684)
Test: Inhibition of CYP3A4 (unknown origin) at 5 uM by luminescent readout-based method
Assay type: ADME
Details: not given

Sequence of CYP3A4 (P08684 whole entry): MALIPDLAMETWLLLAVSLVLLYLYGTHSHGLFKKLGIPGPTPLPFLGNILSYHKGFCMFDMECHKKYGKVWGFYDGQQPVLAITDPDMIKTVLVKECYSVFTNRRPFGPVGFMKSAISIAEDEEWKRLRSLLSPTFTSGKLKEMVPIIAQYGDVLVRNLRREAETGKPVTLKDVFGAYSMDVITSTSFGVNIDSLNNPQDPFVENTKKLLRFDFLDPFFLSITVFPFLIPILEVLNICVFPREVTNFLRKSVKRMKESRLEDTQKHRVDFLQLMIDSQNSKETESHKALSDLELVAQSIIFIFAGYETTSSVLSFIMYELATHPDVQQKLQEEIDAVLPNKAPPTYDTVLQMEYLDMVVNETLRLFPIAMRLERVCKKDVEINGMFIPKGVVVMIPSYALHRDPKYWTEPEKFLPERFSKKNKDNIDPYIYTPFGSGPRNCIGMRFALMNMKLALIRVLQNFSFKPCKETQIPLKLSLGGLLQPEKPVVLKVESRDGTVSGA

In order of falling inhibition at 5 µM:
1. O=C(O)CCc1ccc(OCc2nc(-c3ccc(Cl)cc3)no2)cc1  50.1%
2. Cc1oc(-c2ccccc2)nc1COc1ccc(CCC(=O)O)cc1  36.2%
3. Cc1ccc(-c2noc(COc3ccc(CCC(=O)O)cc3)n2)cc1  29.2%

Molecular target: T6, Free fatty acid receptor 4 (Homo sapiens, UniProt Q5NUL3)
T6 sequence (Q5NUL3 whole entry): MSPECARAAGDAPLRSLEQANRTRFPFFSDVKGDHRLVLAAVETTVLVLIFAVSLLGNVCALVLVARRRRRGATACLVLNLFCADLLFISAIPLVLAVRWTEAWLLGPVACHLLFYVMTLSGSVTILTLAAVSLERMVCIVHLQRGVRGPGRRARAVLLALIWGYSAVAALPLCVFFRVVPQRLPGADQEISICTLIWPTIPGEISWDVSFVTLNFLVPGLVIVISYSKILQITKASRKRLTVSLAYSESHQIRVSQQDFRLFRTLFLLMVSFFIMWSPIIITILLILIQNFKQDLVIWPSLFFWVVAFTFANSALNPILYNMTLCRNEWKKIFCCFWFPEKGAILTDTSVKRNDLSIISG
Test: Agonist activity at GPR120 (unknown origin) expressed in CHO cells by FLIPR calcium flux assay in presence of 0.1% bovine serum albumin
Assay type: functional, cell-based
Details: not given

`Cc1oc(-c2ccccc2)nc1COc1ccc(CCC(=O)O)cc1` and `Cc1ccc(-c2noc(COc3ccc(CCC(=O)O)cc3)n2)cc1` cannot be ordered by EC50: > 10000 nM for the first, > 10000 nM for the second.

For `O=C(O)CCc1ccc(OCc2nc(-c3ccc(Cl)cc3)no2)cc1`, the EC50 was > 10000 nM.

Molecular target: T3, Free fatty acid receptor 1
Test: Agonist activity at GPR40 (unknown origin) expressed in CHO cells at 5 uM by FLIPR calcium flux assay relative to GW9508
Assay type: functional, cell-based
Details: not given

In order of falling Efficacy:
1. Cc1oc(-c2ccccc2)nc1COc1ccc(CCC(=O)O)cc1  103%
2. Cc1ccc(-c2noc(COc3ccc(CCC(=O)O)cc3)n2)cc1  99%
3. O=C(O)CCc1ccc(OCc2coc(-c3ccccc3)n2)cc1  98%
4. CC(Oc1ccc(CCC(=O)O)cc1)c1nc(-c2cccs2)no1 (stereo unspecified)  94%
5. O=C(O)CCc1ccc(OCc2nc(-c3ccc(Cl)cc3)no2)cc1  84%
6. O=C(O)CCc1ccc(OCc2ncc(-c3cccc(F)c3)o2)cc1  81%
7. Cc1cc(-c2noc(COc3ccc(CCC(=O)O)cc3)n2)ccc1F  75%
8. O=C(O)CCc1ccc(OCc2nc(-c3ccc(C(F)(F)F)cc3)no2)cc1  73%
9. O=C(O)Cc1ccc(OCc2nc(-c3cccc(Cl)c3)no2)cc1  69%
10. CC(Oc1ccc(CCC(=O)O)cc1)c1nc(-c2ccc(Cl)cc2)no1 (stereo unspecified)  68%
11. O=C(O)CCc1ccc(OCc2nc(-c3ccccc3)no2)cc1  65%
12. O=C(O)CCc1ccc(OCc2nc(-c3cccc(C(F)(F)F)c3)no2)cc1  65%
13. O=C(O)CCc1ccc(OCc2nc(-c3ccccc3Cl)no2)cc1  61%
14. O=C(O)CCc1ccc(OCc2ncc(-c3ccccc3)o2)cc1  58%

Test system: not listed separately
Test: Plasma protein binding in human at 1 uM after 5 hrs by HPLC-MS/MS analysis
Assay type: ADME, cell-free
Details: read-out: PPB (converted)

In order of falling fraction unbound at 5 h, 1 µM:
1. Cc1ccc(-c2noc(COc3ccc(CCC(=O)O)cc3)n2)cc1  0.015
2. Cc1oc(-c2ccccc2)nc1COc1ccc(CCC(=O)O)cc1  0.014
3. O=C(O)CCc1ccc(OCc2nc(-c3ccc(Cl)cc3)no2)cc1  0.001
